Source: ChEMBL document CHEMBL1147874, “Structure-activity based study of the Smac-binding pocket within the BIR3 domain of XIAP” (Bioorg Med Chem, 2007)
Active and inactive are the calls of the source. The rule behind the calls is not given here.

Experiments:
Homo sapiens = species on record: Homo sapiens; test: Cytotoxicity against […] cells assessed as reduction in cell viability at 30 to 500 uM after 72 hrs by MTT assay; assay type: functional, cell-based
[1] = target: E3 ubiquitin-protein ligase XIAP (Homo sapiens, UniProt P98170); test: Binding affinity to BIR3 domain of XIAP by competitive fluorescent binding assay
E3 ubiquitin-protein ligase XIAP, sequence (P98170 whole entry, the tested form may be a part): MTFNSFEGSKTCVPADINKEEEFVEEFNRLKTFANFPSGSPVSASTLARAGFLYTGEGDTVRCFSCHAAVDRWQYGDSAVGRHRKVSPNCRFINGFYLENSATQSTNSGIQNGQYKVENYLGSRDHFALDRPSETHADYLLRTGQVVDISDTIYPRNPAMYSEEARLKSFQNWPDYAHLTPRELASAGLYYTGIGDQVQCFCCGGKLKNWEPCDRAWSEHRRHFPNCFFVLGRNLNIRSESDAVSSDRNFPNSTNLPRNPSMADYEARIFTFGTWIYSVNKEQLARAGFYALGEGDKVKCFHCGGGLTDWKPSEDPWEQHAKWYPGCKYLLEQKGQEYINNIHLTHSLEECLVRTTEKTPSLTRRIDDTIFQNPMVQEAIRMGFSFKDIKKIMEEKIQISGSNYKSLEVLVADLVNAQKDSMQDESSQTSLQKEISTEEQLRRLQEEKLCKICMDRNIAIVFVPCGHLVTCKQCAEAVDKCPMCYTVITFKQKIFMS

Kd [1]	Structure (SMILES)	Activity (Homo sapiens)
–	C[C@H](N)c1nc(C(=O)N2CCC[C@H]2C(=O)N[C@@H](Cc2c[nH]c3ccccc23)C(=O)O)co1	Active
300 µM	CC[C@H](C)[C@H](NC(=O)[C@@H]1CCCN1C(=O)c1coc([C@H](C)N)n1)C(=O)O	–
–	CC[C@H](C)[C@H](NC(=O)[C@@H]1CCCN1C(=O)[C@@H](NC(=O)[C@H](C)N)C(C)C)C(=O)O	inactive
11 µM	C[C@H](N)c1nc(C(=O)N2CCC[C@H]2C(=O)N[C@@H](Cc2ccccc2)C(=O)O)co1	–
